Reference: US8835436B2 (priority 2009, dated 2014)
Counter-ions that a name gives are not always drawn.

Molecular target: human recombinant 5-HT2C receptor (Homo sapiens (Human), UniProt P28335)
Details: read-out: Binding affinity to serotonin receptor 5-HT2C: IC50
Experimental: Receptor binding affinities of the compounds for serotonin receptors were measured by the method described in the literature [Park W K et al., Pharmacol Biochem Behay.
The binding affinity (IC50) of a compound for the receptor was calculated by computerized nonlinear regression analysis (GraphPad Prism Program, San Diego, USA) using 7-8 varied concentrations of the compound run in duplicate tubes.
Nonspecific binding was determined using 100 uM mianserin. The incubations were performed for 60 min at 27° C., and these were terminated by rapid filtration through filtermate A glass fiber filter presoaked in 0.5% PEI.

Chain of human recombinant 5-HT2C receptor (P28335 whole entry, looked up): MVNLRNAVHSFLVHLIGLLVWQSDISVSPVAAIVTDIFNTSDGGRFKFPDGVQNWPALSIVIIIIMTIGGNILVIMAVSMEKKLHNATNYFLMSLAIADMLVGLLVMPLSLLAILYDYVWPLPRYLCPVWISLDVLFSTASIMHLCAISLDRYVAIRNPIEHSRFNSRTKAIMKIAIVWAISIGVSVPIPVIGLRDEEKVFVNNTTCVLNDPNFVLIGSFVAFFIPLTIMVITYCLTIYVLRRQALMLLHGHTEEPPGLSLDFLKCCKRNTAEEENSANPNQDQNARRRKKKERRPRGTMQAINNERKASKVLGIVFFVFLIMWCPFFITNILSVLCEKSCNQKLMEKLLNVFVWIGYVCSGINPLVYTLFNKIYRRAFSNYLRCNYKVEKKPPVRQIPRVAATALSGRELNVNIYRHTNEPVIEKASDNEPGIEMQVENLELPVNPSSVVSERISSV

SMILES	IC50 [nM]
COc1ccccc1-n1c(C)nc(C(=O)NCCCN2CCN(c3cccc(Cl)c3Cl)CC2)c1C [Example 145, N-(3-(4-(2,3-dichlorophenyl)piperazin-1-yl)propyl)-1-(2-methoxyphenyl)-2,5-dimethyl-1H-imidazole-4-carboxamide dihydrochloride]	25.5
CCCc1nc(C(=O)NCC(O)CN2CCN(c3cccc(C)c3C)CC2)cn1-c1ccccc1 (stereo not shown) [Example 121, N-(3-(4-(2,3-dimethylphenyl)piperazin-1-yl)-2-hydroxypropyl)-1-phenyl-2-propyl-1H-imidazole-4-carboxamide dihydrochloride]	635
CCCc1nc(C(=O)NCCCN2CCN(c3cccc(C)c3C)CC2)cn1-c1ccccc1 [Example 117, N-(3-(4-(2,3-dimethylphenyl)piperazin-1-yl)propyl)-1-phenyl-2-propyl-1H-imidazole-4-carboxamide dihydrochloride]	103
Cc1ccc(-n2c(C)nc(C(=O)NCCCN3CCN(c4cccc(C)c4C)CC3)c2C)cc1 [Example 147, N-(3-(4-(2,3-dimethylphenyl)piperazin-1-yl)propyl)-2,5-dimethyl-1-p-tolyl-1H-imidazole-4-carboxamide dihydrochloride]	78.1
COc1ccc(-n2cc(C(=O)NCCCN3CCN(c4cccc(C)c4C)CC3)nc2-c2ccccc2)cc1 [Example 134, N-(3-(4-(2,3-dimethylphenyl)piperazin-1-yl)propyl)-1-(4-methoxyphenyl)-2-phenyl-1H-imidazole-4-carboxamide dihydrochloride]	101
CCCc1nc(C(=O)NCCCN2CCN(c3cccc(Cl)c3Cl)CC2)c(C)n1-c1ccccc1 [Example 7, N-(3-(4-(2,3-dichlorophenyl)piperazin-1-yl)propyl)-5-methyl-1-phenyl-2-propyl-1H-imidazole-4-carboxamide dihydrochloride]	189
Cc1cccc(N2CCN(CCNC(=O)c3nc(C)n(-c4ccc(F)cc4)c3C)CC2)c1C [Example 114, N-(2-(4-(2,3-dimethylphenyl)piperazin-1-yl)ethyl)-1-(4-fluorophenyl)-2,5-dimethyl-1H-imidazole-4-carboxamide dihydrochloride]	46
Cc1cccc(N2CCN(CCNC(=O)c3nc(C)n(-c4ccc5c(c4)OCO5)c3C)CC2)c1C [Example 115, 1-(benzo[d][1,3]dioxol-5-yl)-N-(2-(4-(2,3-dimethylphenyl)piperazin-1-yl)ethyl)-2,5-dimethyl-1H-imidazole-4-carboxamide dihydrochloride]	27
Cc1nc(C(=O)NCCCN2CCN(c3cccc(Cl)c3Cl)CC2)c(C)n1-c1ccccc1 [Example 6, N-(3-(4-(2,3-dichlorophenyl)piperazin-1-yl)propyl)-2,5-dimethyl-1-phenyl-1H-imidazole-4-carboxamide]	12.1
CCc1c(C(=O)NCCCN2CCN(c3cccc(Cl)c3Cl)CC2)nc(-c2ccc(Cl)cc2Cl)n1-c1ccc(Br)cc1 [Example 89, 1-(4-bromophenyl)-2-(2,4-dichlorophenyl)-N-(3-(4-(2,3-dichlorophenyl)piperazin-1-yl)propyl)-5-ethyl-1H-imidazole-4-carboxamide]	319
CCCn1c(C)nc(C(=O)NCC(O)CN2CCN(c3cccc(C)c3C)CC2)c1C (stereo not shown) [Example 96, N-(3-(4-(2,3-dimethylphenyl)piperazin-1-yl)-2-hydroxypropyl)-2,5-dimethyl-1-propyl-1H-imidazole-4-carboxamide dihydrochloride]	> 10000
Cc1cccc(N2CCN(CC(O)CNC(=O)c3nc(C)n(CC(C)C)c3C)CC2)c1C (stereo not shown) [Example 94, N-(3-(4-(2,3-dimethylphenyl)piperazin-1-yl)-2-hydroxypropyl)-1-isobutyl-2,5-dimethyl-1H-imidazole-4-carboxamide dihydrochloride]	595
CCc1nc(C(=O)NCCN2CCN(c3cccc(Cl)c3Cl)CC2)c(C)n1-c1ccccc1 [Example 13, N-(2-(4-(2,3-dichlorophenyl)piperazin-1-yl)ethyl)-2-ethyl-5-methyl-1-phenyl-1H-imidazole-4-carboxamide]	62
Cc1cccc(N2CCN(CC(O)CNC(=O)c3nc(-c4ccccc4)n(-c4ccccc4)c3C)CC2)c1C (stereo not shown) [Example 155, N-(3-(4-(2,3-dimethylphenyl)piperazin-1-yl)-2-hydroxypropyl)-5-methyl-1,2-diphenyl-1H-imidazole-4-carboxamide dihydrochloride]	525
COc1ccccc1-n1c(C)nc(C(=O)NCC(O)CN2CCN(c3cccc(C)c3C)CC2)c1C (stereo not shown) [Example 100, N-(3-(4-(2,3-dimethylphenyl)piperazin-1-yl)-2-hydroxypropyl)-1-(2-methoxyphenyl)-2,5-dimethyl-1H-imidazole-4-carboxamide dihydrochloride]	207
Cc1ccc(-n2c(C)nc(C(=O)NCC(O)CN3CCN(c4cccc(C)c4C)CC3)c2C)cc1 (stereo not shown) [Example 148, N-(3-(4-(2,3-dimethylphenyl)piperazin-1-yl)-2-hydroxypropyl)-2,5-dimethyl-1-p-tolyl-1H-imidazole-4-carboxamide dihydrochloride]	705
COc1cc(OC)cc(-n2c(C)nc(C(=O)NCCN3CCN(c4cccc(C)c4C)CC3)c2C)c1 [Example 112, 1-(3,5-dimethoxyphenyl)-N-(2-(4-(2,3-dimethylphenyl)piperazin-1-yl)ethyl)-2,5-dimethyl-1H-imidazole-4-carboxamide dihydrochloride]	63
CCCc1nc(C(=O)NCC(O)CN2CCN(c3cccc(C)c3C)CC2)cn1-c1ccc(Cl)cc1 (stereo not shown) [Example 111, 1-(4-chlorophenyl)-N-(3-(4-(2,3-dimethylphenyl)piperazin-1-yl)-2-hydroxypropyl)-2-propyl-1H-imidazole-4-carboxamide dihydrochloride]	661
Cc1cccc(N2CCN(CCCNC(=O)c3nc(C)n(CC(C)C)c3C)CC2)c1C [Example 92, N-(3-(4-(2,3-dimethylphenyl)piperazin-1-yl)propyl)-1-isobutyl-2,5-dimethyl-1H-imidazole-4-carboxamide dihydrochloride]	10100
